Reference: US8106197B2, “Aminoheteroaryl compounds as protein kinase inhibitors” (Pfizer Inc., priority 2003, dated 2012)
Like-named read-outs stand apart in the source and are kept apart here.

Target: T1, HGFR (Homo sapiens, UniProt P08581)
T1 construct: purchased Upstate 14-526
Assay: HGFR continuous-coupled spectrophotometric assay
Format: biochemical
Settings: for inhibition at 0.05 µM: Table 5, percent c-MET inhibition at 50 nM; for I(%): Table 3, Ki(μM) or I(%), test concentration not given

[1] = Table 6, percent c-MET inhibition at 1 μM, read-out: % inhibition

T1 sequence (P08581 974-1390 limits assumed): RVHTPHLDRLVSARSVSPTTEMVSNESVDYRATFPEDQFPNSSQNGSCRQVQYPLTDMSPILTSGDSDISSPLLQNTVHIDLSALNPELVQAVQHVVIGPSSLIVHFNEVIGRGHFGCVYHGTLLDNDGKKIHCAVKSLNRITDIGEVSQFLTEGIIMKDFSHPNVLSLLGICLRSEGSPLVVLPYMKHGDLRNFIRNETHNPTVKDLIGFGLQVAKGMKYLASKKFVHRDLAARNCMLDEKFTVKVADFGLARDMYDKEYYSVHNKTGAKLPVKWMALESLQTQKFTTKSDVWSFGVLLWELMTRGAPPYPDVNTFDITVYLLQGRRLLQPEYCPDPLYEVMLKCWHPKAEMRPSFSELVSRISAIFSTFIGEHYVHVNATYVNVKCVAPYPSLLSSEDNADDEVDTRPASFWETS

SMILES	% inhibition	inhibition at 1 µM [1] [%]	also measured
CC(Oc1cc(-c2ccc(C(=O)N3CCN(CCC#N)CC3)cc2)cnc1N)c1c(Cl)ccc(F)c1Cl (centres unmarked)			inhibition at 0.05 µM: 77%
Nc1ncc(-c2ccc(C(=O)N3CCC(N4CCCC4)CC3)cc2)cc1OCc1ccc(C(=O)NCCN2CCOCC2)cc1	% inhibition = 11		
Nc1ncc(-c2ccc(C(=O)N3CCC(N4CCCC4)CC3)cc2)cc1OCc1ccc(C(F)(F)F)nc1	% inhibition = 13		
CC(Oc1cc(-c2ccc(C(=O)N3CCCC(CO)C3)cc2)cnc1N)c1c(Cl)ccc(F)c1Cl (centres unmarked)			inhibition at 0.05 µM: 84%
CC(Oc1cc(-c2ccc(C(=O)N3CCCCC3COc3ccccc3)cc2)cnc1N)c1c(Cl)ccc(F)c1Cl (centres unmarked)			inhibition at 0.05 µM: 53%
Nc1ncc(C(=O)NCCc2c[nH]c3ccc(O)cc23)cc1OCc1c(Cl)cccc1Cl		29	
CC(C)(CO)CNC(=O)c1cnc(N)c(OCc2c(Cl)cccc2Cl)c1		39	
Nc1ncc(-c2ccc(C(=O)N3CCC(N4CCCC4)CC3)cc2)cc1OCc1ccc2ccccc2c1Br	% inhibition = 59		
Nc1ncc(C(=O)N[C@@H]2CCC[C@H]2OCc2ccccc2)cc1OCc1c(Cl)cccc1Cl		16	
Nc1ncc(C(=O)N2CCCC(N3CCC(CO)CC3)CC2)cc1OCc1c(Cl)cccc1Cl (centres unmarked)		20	
Nc1ncc(-c2ccc(C(=O)N3CCC(N4CCCC4)CC3)cc2)cc1OCc1cccc(C(=O)Nc2cccnc2)c1	% inhibition = 10		
Nc1ncc(C(=O)NCc2ccc[nH]c2=O)cc1OCc1c(Cl)cccc1Cl		16	
NC(=O)C1CCCN(C(=O)c2cnc(N)c(OCc3c(Cl)cccc3Cl)c2)C1 (centres unmarked)		39	
Nc1ncc(-c2ccc(C(=O)N3CCC(N4CCCC4)CC3)cc2)cc1OCc1nc2cc(C(F)(F)F)ccc2s1	% inhibition = 34		
Nc1ncc(C(=O)NCc2noc(C(=O)N3CC[C@H](O)C3)n2)cc1OCc1c(Cl)cccc1Cl		26	
Nc1ncc(C(=O)N2CCC(O)(CN3CCCC3=O)C2)cc1OCc1c(Cl)cccc1Cl (centres unmarked)		20	
Nc1ncc(C(=O)N2CCc3nnc(CCN4CCOCC4)n3CC2)cc1OCc1c(Cl)cccc1Cl		27	
CN(C)CCNC(=O)c1cnc(N)c(OCc2c(Cl)cccc2Cl)c1		29	
COc1cc(OC)nc(COc2cc(-c3ccc(C(=O)N4CCC(N5CCCC5)CC4)cc3)cnc2N)n1	% inhibition = 20		
CC(C)OCCNC(=O)c1cnc(N)c(OCc2c(Cl)cccc2Cl)c1		46	
Nc1ncc(C(=O)N2CCN(CC(=O)N3CCCCC3)CC2)cc1OCc1c(Cl)cccc1Cl		24	
Nc1ncc(C(=O)N2CCC(O)(CCc3ccncc3)CC2)cc1OCc1c(Cl)cccc1Cl		25	
Nc1ncc(C(=O)NCC2=CSC3=NCCN23)cc1OCc1c(Cl)cccc1Cl		99	
Nc1ncc(C(=O)NCc2c(F)cccc2F)cc1OCc1c(Cl)cccc1Cl		32	
NC(=O)C1CCN(C(=O)c2cnc(N)c(OCc3c(Cl)cccc3Cl)c2)CC1		29	
Nc1ncc(C(=O)N2CCN(CC(=O)N3CCCC3)CC2)cc1OCc1c(Cl)cccc1Cl		32	

SMILES	% inhibition	inhibition at 1 µM [1] [%]	also measured
Nc1ncc(C(=O)N2CCNC(=O)C2)cc1OCc1c(Cl)cccc1Cl		22	
COc1cc(CCNC(=O)c2cnc(N)c(OCc3c(Cl)cccc3Cl)c2)ccc1O		32	
COCCN1CCN(C(=O)c2cnc(N)c(OCc3c(Cl)cccc3Cl)c2)CC1		27	
Nc1ncc(C(=O)N2CCN(CCCN3CCOCC3)CC2)cc1OCc1c(Cl)cccc1Cl		40	
CCN1CCCC(NC(=O)c2cnc(N)c(OCc3c(Cl)cccc3Cl)c2)C1 (centres unmarked)		19	
Cc1oc(-c2ccccc2)nc1COc1cc(-c2ccc(C(=O)N3CCC(N4CCCC4)CC3)cc2)cnc1N	% inhibition = 19		
Nc1ncc(C(=O)NC[C@]2(O)CC[C@H](c3ccccc3)CC2)cc1OCc1c(Cl)cccc1Cl		15	
CC(Oc1cc(-c2nccn2C)cnc1N)c1c(Cl)ccc(F)c1Cl (centres unmarked) [Example I-652]			I(%): 11%
Nc1ncc(C(=O)N2CCC(=O)CC2)cc1OCc1c(Cl)cccc1Cl			inhibition at 1 µM: 44%
CC(Oc1cc(-c2ccc(C(=O)N[C@H]3C[C@@H]3c3ccccc3)cc2)cnc1N)c1c(Cl)ccc(F)c1Cl (some centres unmarked)			inhibition at 0.05 µM: 65%
Cc1cc(C)n2nc(COc3cc(-c4ccc(C(=O)N5CCC(N6CCCC6)CC5)cc4)cnc3N)nc2n1	% inhibition = 18		
Cc1oc(-c2ccc(F)cc2)nc1COc1cc(-c2ccc(C(=O)N3CCC(N4CCCC4)CC3)cc2)cnc1N	% inhibition = 17		
Nc1ncc(C(=O)NC2CCN(Cc3ccccc3)C2)cc1OCc1c(Cl)cccc1Cl (centres unmarked)		27	
Nc1ncc(C(=O)N2CCC(Cc3ccc(F)cc3)CC2)cc1OCc1c(Cl)cccc1Cl		41	
Nc1ncc(-c2ccc(C(=O)N3CCC(N4CCCC4)CC3)cc2)cc1OCc1ccc(-c2cnc(Br)nc2)cc1	% inhibition = 33		
Cc1noc(C)c1COc1cc(-c2ccc(C(=O)N3CCC(N4CCCC4)CC3)cc2)cnc1N	% inhibition = 10		
COc1ccc(C(NC(=O)c2ccc(-c3cnc(N)c(OC(C)c4c(Cl)ccc(F)c4Cl)c3)cc2)C2CC2)cc1 (centres unmarked)			inhibition at 0.05 µM: 67%
Nc1ncc(C(=O)NCC(O)c2ccc(O)cc2)cc1OCc1c(Cl)cccc1Cl (centres unmarked)		29	
CC1CN(C(=O)c2ccc(-c3cnc(N)c(OCc4ccccc4)c3)cc2)CC(C)N1 (centres unmarked) [Example I-621, {4-(6-Amino-5-benzyloxy-pyridin-3-yl)-phenyl]-(3,5-dimethyl-piperazin-1-yl)-methanone]			I(%): 6%
CC(Oc1cc(-c2ccc(C(=O)N3CCC(N4CCCC4)CC3)cc2)cnc1N)c1ccc(C(=O)NCCc2cccc(O)c2)cc1 (centres unmarked) [Example I-629, 4-(1-{2-Amino-5-[4-(4-pyrrolidin-1-yl-piperidine-1-carbonyl)-phenyl]-pyridin-3-yloxy}-ethyl)-[2-(3-hydroxy-phenyl)-ethyl]-benzamide]			I(%): 7%
CC(Oc1cc(-c2ccc(C(=O)N3CCC(N4CCCC4)CC3)cc2)cnc1N)c1ccccc1C(F)(F)F (centres unmarked)	% inhibition = 21		
COc1cc(C(=O)N2C[C@@H](C)N[C@@H](C)C2)cc(OC)c1-c1cnc(N)c(OC(C)c2c(Cl)ccc(F)c2Cl)c1 (some centres unmarked) [Example I-550, (4-{6-Amino-5-[1-(2,6-dichloro-3-fluoro-phenyl)-ethoxy]-pyridin-3-yl)-3,5-dimethoxy-phenyl)-(dimethyl-piperazin-1-yl)-methanone]			I(%): 15%
Nc1ncc(C(=O)NCCOc2ccccc2)cc1OCc1c(Cl)cccc1Cl		66	
Nc1ncc(-c2ccc(C(=O)N3CCC(N4CCCC4)CC3)cc2)cc1OCc1csc(-c2ccc(Cl)cc2)n1	% inhibition = 9		
Nc1ncc(-c2ccc(C(=O)N3CCC(N4CCCC4)CC3)cc2)cc1OCc1ccc(-c2csnn2)cc1	% inhibition = 41		
Nc1ncc(-c2ccc(C(=O)N3CCC(N4CCCC4)CC3)cc2)cc1OCc1nc2ccccc2[nH]1	% inhibition = 4		

SMILES	% inhibition	inhibition at 1 µM [1] [%]	also measured
Nc1ncc(-c2ccc(C(=O)N3CCC(N4CCCC4)CC3)cc2)cc1OCc1nc(CS(=O)(=O)c2ccccn2)no1	% inhibition = 9		
Nc1ncc(-c2ccc(C(=O)N3CCC(N4CCCC4)CC3)cc2)cc1OCc1c(F)cccc1C(F)(F)F	% inhibition = 31		
Nc1ncc(C(=O)NCCC2CCOCC2)cc1OCc1c(Cl)cccc1Cl		31	
CCCCc1nc(COc2cc(-c3ccc(C(=O)N4CCC(N5CCCC5)CC4)cc3)cnc2N)c[nH]1	% inhibition = 16		
Nc1ncc(-c2ccc(C(=O)N3CCC(N4CCCC4)CC3)cc2)cc1OCc1ccccc1CS(=O)(=O)c1ccccc1	% inhibition = 11		
CCN1CCCC1CNC(=O)c1ccc(COc2cc(-c3ccc(C(=O)N4CCC(N5CCCC5)CC4)cc3)cnc2N)cc1 (centres unmarked)	% inhibition = 18		
CC(Oc1cc(-c2ccc(C(=O)N3CCC(Cc4ccccc4)C3)cc2)cnc1N)c1c(Cl)ccc(F)c1Cl (centres unmarked)			inhibition at 0.05 µM: 59%
Nc1ncc(-c2ccc(C(=O)N3CCC(N4CCCC4)CC3)cc2)cc1OCc1cc(F)ccc1F	% inhibition = 24		
CC(C)CCNC(=O)C1CC12CCN(C(=O)c1cnc(N)c(OCc3c(Cl)cccc3Cl)c1)CC2 (centres unmarked)		21	
CC(Oc1cc(-c2ccc(C(=O)NC[C@H]3CCCO3)cc2)cnc1N)c1c(Cl)ccc(F)c1Cl (some centres unmarked)			inhibition at 0.05 µM: 60%
Nc1ncc(C(=O)N2CCC3(CC2)CC3C(=O)NCC2CC2)cc1OCc1c(Cl)cccc1Cl (centres unmarked)		32	
COc1ccc(C(NC(=O)c2cnc(N)c(OCc3c(Cl)cccc3Cl)c2)C2CC2)cc1 (centres unmarked)		27	
COC(=O)C(CO)NC(=O)c1ccc(-c2cnc(N)c(OC(C)c3c(Cl)ccc(F)c3Cl)c2)cc1 (centres unmarked)			inhibition at 0.05 µM: 81%
Cc1ccc(-c2nnc(COc3cc(-c4ccc(C(=O)N5CCC(N6CCCC6)CC5)cc4)cnc3N)o2)cc1	% inhibition = 18		
Nc1ncc(C(=O)NCc2ccc(C(F)(F)F)nc2)cc1OCc1c(Cl)cccc1Cl		17	
Nc1ncc(C(=O)N2CCCN(Cc3ccc(F)cc3)CC2)cc1OCc1c(Cl)cccc1Cl		26	
Nc1ncc(-c2ccc(C(=O)N3CCC(N4CCCC4)CC3)cc2)cc1OCc1nc(N)c2ccccc2n1	% inhibition = 15		
Nc1ncc(-c2ccc(C(=O)N3CCC(N4CCCC4)CC3)cc2)cc1OCc1noc(-c2ccccc2)n1	% inhibition = 16		
Nc1ncc(-c2ccc(C(=O)N3CCC(N4CCCC4)CC3)cc2)cc1OCc1cncc2ccccc12	% inhibition = 9		
CC(C)CCNC(=O)c1cnc(N)c(OCc2c(Cl)cccc2Cl)c1		26	
Nc1ncc(-c2ccc(C(=O)N3CCC(N4CCCC4)CC3)cc2)cc1OCc1cc(-c2ccccc2)no1	% inhibition = 23		
C[C@@H]1CCC[C@H](C)N1CCNC(=O)c1cnc(N)c(OCc2c(Cl)cccc2Cl)c1		2	
Nc1ncc(C(=O)N2CCCC(O)(COc3cccc(F)c3)C2)cc1OCc1c(Cl)cccc1Cl (centres unmarked)		36	
COc1cccc(COc2cc(-c3ccc(C(=O)N4CCC(N5CCCC5)CC4)cc3)cnc2N)c1OC	% inhibition = 23		
Nc1ncc(C(=O)NCCc2ccc(S(N)(=O)=O)cc2)cc1OCc1c(Cl)cccc1Cl		30	
